Results from patent US4791215A, “Derivatives of glutamic acid and aspartic acid” (priority 1984, dated 1988).
Several values for one entry are separate records, joined by “and”; a condition that tells them apart may be missing. Equal entries are not always repeated.

Legend:
[1] = tested on: CCK-8 induced contraction of guinea pig gall bladder; assay: Anti-CCK activity on gall bladder strips in vitro; conditions: CCK-8 10 ng/ml
Procedure, shortened: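 Longitudinal guinea pig gall bladder strips in Krebs at 32 °C, gassed with O2/CO2 95:5, were contracted with 10 ng/ml CCK-8. Isometric force was recorded across several compound concentrations, and ED50 was taken as the μg/ml concentration antagonising 50% of the CCK contraction.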

[2] = tested on: CCK-8 induced contraction of guinea pig gall bladder; assay: Anti-CCK-8 activity on gall bladders in situ; type: in vivo; conditions: for percentage inhibition of contracting effect of CCK-8: single experiments; for ED50: Cavia porcellus, iv, CCK-8 10 ng/kg i.v., read-out: ED50 (inhibition of 50% of contracting effect of CCK-8)
Experimental: In order to confirm the evidence of the studies in vitro several of the more interesting compounds were tested in vivo on guinea pig gall baldders in situ.
The method used is that described by Ljungberg (Svensk. Farm. Tidskr. 68, 351-354, 1964).
Guinea pigs having a weight of about 400 g, anaesthetised with urethane, were used; the substances under examination were administered intraveneously into the jugular vein.
The responses of the gall bladders to the substances under test were detected by means of a force transducer and recorded by means of a microdynamometer. The optimum contracting dose was chosen as 10 ng/kg of CCK-8. The antagonist compounds tested were administered in increasing doses so as to enable the calculation of an ED50 value, that is in the dose (in mg/kg i.v.) capable of inhibiting 50% of the contracting effect of 10 ng/kg i.v. of CCK-8.
The results obtained are given in Table 7 below, which gives the doses used and the effects obtained expressed as a percentage inhibition of the contracting effect of CCK-8 as well as the ED50 found.

morphine analgesia = assay: Increase in analgesia of morphine, Tail Flick Test (Experiment 1); type: in vivo, rats; conditions: for percentage variation of latency of pain sensation / M (10-90) ± SE, mean percentage variation of latency: compound 10 mg/kg i.p. + morphine 2 mg/kg; for M (10-90) ± SE, mean percentage variation of latency: mean 10-90 min; for Power ratio with respect to morphine alone: rat, in vivo
Procedure, shortened: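 Non-fasted male rats (150-200 g); a tail point is exposed to a 75 °C heat source and latency to tail movement recorded, 8 s cut-off. Readings taken before and 10, 20, 30, 45, 60 and 90 min after analgesic treatment; percentage variation calculated per animal.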

[3] = tested on: intestinal transit of carbon; assay: Anti-spastic activity, vegetable carbon intestinal transit test; type: in vivo, mice; conditions: Mus musculus, ip; read-out: antispastic activity ED50 (dose reducing intestinal transit of carbon by 50%)
Text: The anti-spastic activity which the present compounds exert on the entire digestive system is also notable. Measured in mice with the vegetable carbon test (rate of transit through the stomach and the intestine), this activity is illustrated in the following table.
claimed administered intraperitoneally in mice. Values
expressed as the ED 50 in mg/kg, that is the dose which
reduces the intestinal transit of carbon by 50%

normal pancreatic cells = assay: Trophic action of CCK-8 on normal pancreas; type: in vivo, hamsters; conditions: CCK-8 10 mcg/kg 3 times per day
Text: (§1) The anti-cholecystokinin effect of the most powerful of the compounds which are the subject of the present invention, that is the compound C-7, on the trophic activity of CCK on normal pancreatic cells and on those of a pancreatic adenocarcinoma is to be studied.
(§2) Male hamsters were inoculated in the cheek pouches with a suspension of 1×10^5 tumoral cells of a pancreatic adenocarcinoma. Five days after the inoculation the animals were divided at random into 4 groups of 10 animals each, that is, a control group, a group of animals treated with 10 μg/kg of CCK-8 three times a day, a group of animals treated with 5 mg/kg i.p. of compound C-7 three times a day, and a fourth group treated simultaneously with the compound C-7 and CCK-8 in the manner described above.
(§3) After 15 days of this treatment, the animals were killed, and the normal pancreas and the inoculated pancreatic tumours in the cheek pouches were collected and weighed. The DNA was extracted and measured according to conventional techniques.
(§4) The results thus obtained are given in Table 13, expressed as mean values (±S.E.)

[4] = tested on: pancreatic adenocarcinoma; type: in vivo, hamsters
Text: as §1, §2, §3, §4

biliary flow = assay: Biliary flow (choleretic activity); type: in vivo, rat; conditions: for ED50: Rattus norvegicus, iv, average over 2 hours, read-out: ED50 (dose causing 50% increase in biliary flow)
Experimental: The following experiment was carried out: a cannula was inserted in the bile duct of a rat anaesthetised with urethane, together with a small needle connected to a polythene tube, and the bile liquid was thus collected. The collection was carried out for one hour before the intravenous administration of the tested compounds and for a further two hours after administration, the samples collected at 30 minute intervals being weighed.
In order to prevent possible dehydration of the animals, 0.5 ml of physiological solution was administered at 30 minute intervals up to a total of 3 ml.

[5] = tested on: CCK-8 induced contraction of rabbit colon; assay: Anti-spastic activity in the colon stimulated by CCK-8; type: in vivo
Experimental: A much more specific anti-spastic activity, that is adhering much more to a physiological situation, is illustrated by the following experiment.
The abdomen of an anaesthetised rabbit was cut open to show the transverse colon. A small balloon full of water was inserted at the point established and connected to a pressure transducer by means of a polythene cannula filled with water.
The optimum sensitivity was fixed in relation to the physiological conditions and the products were administered through the femoral vein. Contractions were induced by the administration of 100 ng/kg of CCK.

[6] = CCK-8 10 mcg/kg 3 times per day

CCCCCN(CCCCC)C(=O)C(CCC(=O)O)NC(=O)c1ccc(Cl)cc1 (stereo not shown) [Compound C-4]
ED50 (concentration antagonising 50% of contracting effect of CCK-8) [1]: 1.1 µg/mL | percentage inhibition of contracting effect of CCK-8 ([2]; 0.03 mg/kg i.v.): -11.8% | percentage inhibition of contracting effect of CCK-8 ([2]; 1 mg/kg i.v.): -92.1% and -88.5% | ED50 [2]: 0.3 mg/kg | percentage variation of latency of pain sensation (morphine analgesia; 10'): 44.6 ± 5.3% | percentage variation of latency of pain sensation (morphine analgesia; 20'): 67.5 ± 13.4% | percentage variation of latency of pain sensation (morphine analgesia; 30'): 66.3 ± 14.0% | percentage variation of latency of pain sensation (morphine analgesia; 45'): 60.4 ± 16.3% | percentage variation of latency of pain sensation (morphine analgesia; 60'): 59.8 ± 17.0% | percentage variation of latency of pain sensation (morphine analgesia; 90'): 44.2 ± 14.8% | M (10-90) ± SE, mean percentage variation of latency (morphine analgesia): 57.1% | Power ratio with respect to morphine alone (morphine analgesia): 1.92 | ED50 [3]: 38.8 mg/kg

CCK-8: the biologically active component of the cholecystokinin hormone [reference compound]
Pancreas weight (normal pancreatic cells): 600 ± 54.1 mg | Pancreatic DNA (normal pancreatic cells): 1.5 ± 0.11 mg | TUMORAL DNA [4, 6]: 0.7 ± 0.13 mg | Weight of Pancreatic Carcinoma [4, 6]: 180 ± 15.2 mg | animals died during the treatment ([4]; CCK-8 10 mcg/kg 3 times per day, of 10): 2 animals | effect on growth of pancreatic adenocarcinoma / CCK-8 actions ([4]; hamster, in vivo): stimulates the growth of a pancreatic adenocarcinoma

CCCc1ccc(C(=O)NC(CCC(=O)O)C(=O)N(CCC)CCC)cc1 (stereo not shown) [Compound C-35]
ED50 (concentration antagonising 50% of contracting effect of CCK-8) [1]: 367.1 µg/mL | % increase in biliary flow with respect to controls (biliary flow; 12.5 mg/kg i.v.): +9.6% | % increase in biliary flow with respect to controls (biliary flow; 25 mg/kg i.v.): +51.9% | % increase in biliary flow with respect to controls (biliary flow; 50 mg/kg i.v.): +91.9% | % increase in biliary flow with respect to controls (biliary flow; 100 mg/kg i.v.): +159.7% | ED50 (biliary flow): 29.5 mg/kg | percentage variation of latency of pain sensation (morphine analgesia; 10'): 39.9 ± 15% | percentage variation of latency of pain sensation (morphine analgesia; 20'): 62.3 ± 23% | percentage variation of latency of pain sensation (morphine analgesia; 30'): 13.7% | percentage variation of latency of pain sensation (morphine analgesia; 45'): 63.2 ± 17% | percentage variation of latency of pain sensation (morphine analgesia; 60'): 61.3 ± 20% | percentage variation of latency of pain sensation (morphine analgesia; 90'): 28.8 ± 31% | M (10-90) ± SE, mean percentage variation of latency (morphine analgesia): 44.9 ± 21% | Power ratio with respect to morphine alone (morphine analgesia): 1.51 | ED50 [3]: 181 mg/kg

CCCCN(CCCC)C(=O)C(CCC(=O)O)NC(=O)c1ccc(Cl)c(Cl)c1 (racemic) [Compound C-6, D,L-4-(3,4-dichloro-benzoyl-amino)-5-(di-n-butylamino)-5-oxo-pentanoic acid]
ED50 (concentration antagonising 50% of contracting effect of CCK-8) [1]: 0.33 µg/mL | % increase in biliary flow with respect to controls (biliary flow; 3 mg/kg i.v.): +40.4% | % increase in biliary flow with respect to controls (biliary flow; 10 mg/kg i.v.): +69.8% | % increase in biliary flow with respect to controls (biliary flow; 30 mg/kg i.v.): +88.7% | ED50 (biliary flow): 4.2 mg/kg | effect on CCK-8 stimulated colon ([5]; 0.1 mg/kg iv, single experiments): 0 | ED50 ([5]; Oryctolagus cuniculus, iv, CCK 100 ng/kg): 1.53 mg/kg | percentage inhibition of contracting effect of CCK-8 ([2]; 0.01 mg/kg i.v.): -12.9% | percentage inhibition of contracting effect of CCK-8 ([2]; 0.03 mg/kg i.v.): -49.7% and -40.0% | block of gall bladder contractions induced by CCK-8 ([2]; 0.1 mg/kg): can block gall bladder contractions induced by CCK-8 | percentage inhibition of contracting effect of CCK-8 ([2]; 1 mg/kg i.v.): -100.0% | ED50 [2]: 0.05 mg/kg | percentage variation of latency of pain sensation (morphine analgesia; 10'): 89.2% | percentage variation of latency of pain sensation (morphine analgesia; 20'): 91.3 ± 8.7% | percentage variation of latency of pain sensation (morphine analgesia; 30'): 83.6 ± 10.0% | percentage variation of latency of pain sensation (morphine analgesia; 45'): 82.1 ± 16.6% | percentage variation of latency of pain sensation (morphine analgesia; 60'): 79.8 ± 17.0% | percentage variation of latency of pain sensation (morphine analgesia; 90'): 38.2% | M (10-90) ± SE, mean percentage variation of latency (morphine analgesia): 77.4 ± 19.6% | Power ratio with respect to morphine alone (morphine analgesia): 2.59 | ED50 [3]: 29.5 mg/kg
